Laboratory results as given in patent US20060069132A1, “Azolecarboxamide herbicides” (priority 2004, published 2006).

Columns and labels:
velvetleaf = assay: Test C pre-/postemergence herbicide test; format: in vivo, Abutilon theophrasti; settings: for Plant response rating, Velvetleaf: 125 g ai/ha, scale 0 (no effect) to 100 (complete control), visual, 12 to 14 days, preemergence; for Velvetleaf plant response rating: Preemergence, 500 g ai/ha, scale 0 to 100, 0 no effect, 100 complete control
How it was run: (§1)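 Seeds were planted and sprayed preemergence with test chemicals in a non-phytotoxic solvent mixture containing surfactant; postemergence treatments went onto plants 2 to 18 cm tall (1- to 4-leaf stage). After 12 to 14 days in a greenhouse, injury was rated visually against untreated controls on a 0–100 scale.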

cocklebur = assay: Test C pre-/postemergence herbicide test; format: in vivo, Xanthium strumarium; settings: for Plant response rating (0 = no effect, 100 = complete control), Cocklebur: 62 g ai/ha; for Plant response rating (0 = no effect, 100 = complete control), Cocklebur / Plant response rating, Cocklebur: preemergence; for Plant response rating, Cocklebur: visual, 12 to 14 days; for Cocklebur plant response rating: Preemergence, 500 g ai/ha, scale 0 to 100, 0 no effect, 100 complete control
How it was run: as §1

corn = assay: Test C pre-/postemergence herbicide test; format: in vivo, Zea mays; settings: for Plant response rating (0 = no effect, 100 = complete control), Corn: 62 g ai/ha; for Plant response rating (0 = no effect, 100 = complete control), Corn / Plant response rating, Corn: preemergence; for Plant response rating, Corn: visual, 12 to 14 days; for Corn plant response rating: Preemergence, 500 g ai/ha, scale 0 to 100, 0 no effect, 100 complete control
How it was run: as §1

redroot pigweed = assay: Test A pre-/postemergence herbicide test; format: in vivo, Amaranthus retroflexus; settings: for Plant response rating, Pigweed: Postemergence; for Pigweed plant response rating: Preemergence
How it was run: (§2)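 Seeds sown in sandy loam received a preemergence directed soil spray of compound in non-phytotoxic solvent with surfactant; postemergence plants (2–10 cm, one- to two-leaf stage) were sprayed to runoff at the same time. After ~10 days in greenhouse, injury was rated visually versus untreated controls (0 = no effect, 100 = complete control).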

pigweed = assay: Test C pre-/postemergence herbicide test; format: in vivo, Amaranthus retroflexus; settings: for Plant response rating (0 = no effect, 100 = complete control), Pigweed: 62 g ai/ha; for Plant response rating (0 = no effect, 100 = complete control), Pigweed / Plant response rating, Pigweed: preemergence; for Plant response rating, Pigweed: 125 g ai/ha, scale 0 (no effect) to 100 (complete control), visual, 12 to 14 days; for Pigweed plant response rating: Preemergence, 500 g ai/ha, scale 0 to 100, 0 no effect, 100 complete control
How it was run: as §1

morningglory [1] = assay: Test C pre-/postemergence herbicide test; format: in vivo, Ipomoea coccinea; parameters: key to Plant response rating, Morningglory: 0 = no effect, 100 = complete control; settings: for Plant response rating (0 = no effect, 100 = complete control), Morningglory: 62 g ai/ha; for Plant response rating (0 = no effect, 100 = complete control), Morningglory / Plant response rating, Morningglory: preemergence; for Plant response rating, Morningglory: 125 g ai/ha, scale 0 (no effect) to 100 (complete control), visual, 12 to 14 days; for Morningglory plant response rating: Preemergence, 500 g ai/ha, scale 0 to 100, 0 no effect, 100 complete control
How it was run: as §1

eastern black nightshade = assay: Test C pre-/postemergence herbicide test; format: in vivo, Solanum ptycanthum; settings: for Plant response rating (0 = no effect, 100 = complete control), Nightshade: 62 g ai/ha; for Plant response rating (0 = no effect, 100 = complete control), Nightshade / Plant response rating, Nightshade: preemergence; for Plant response rating, Nightshade: 125 g ai/ha, scale 0 (no effect) to 100 (complete control), visual, 12 to 14 days; for Nightshade plant response rating: Preemergence, 500 g ai/ha, scale 0 to 100, 0 no effect, 100 complete control
How it was run: as §1

johnsongrass = assay: Test C pre-/postemergence herbicide test; format: in vivo, Sorghum halepense; settings: for Plant response rating (0 = no effect, 100 = complete control), Johnsongrass: 62 g ai/ha; for Plant response rating (0 = no effect, 100 = complete control), Johnsongrass / Plant response rating, Johnsongrass: preemergence; for Plant response rating, Johnsongrass: 125 g ai/ha, scale 0 (no effect) to 100 (complete control), visual, 12 to 14 days; for Johnsongrass plant response rating: Preemergence, 500 g ai/ha, scale 0 to 100, 0 no effect, 100 complete control
How it was run: as §1

morningglory [2] = assay: Test A pre-/postemergence herbicide test; format: in vivo, Ipomoea spp.; settings: for Plant response rating, Morningglory: Postemergence; for Morningglory plant response rating: Preemergence
How it was run: as §2

Surinam grass = assay: Test C pre-/postemergence herbicide test; format: in vivo, Urochloa decumbens; settings: for Plant response rating (0 = no effect, 100 = complete control), Surinam Grass: 62 g ai/ha; for Plant response rating (0 = no effect, 100 = complete control), Surinam Grass / Plant response rating, Surinam Grass: preemergence; for Plant response rating, Surinam Grass: 125 g ai/ha, scale 0 (no effect) to 100 (complete control), visual, 12 to 14 days; for Surinam Grass plant response rating: Preemergence, 500 g ai/ha, scale 0 to 100, 0 no effect, 100 complete control
How it was run: as §1

[3] = 125 g ai/ha, scale 0 (no effect) to 100 (complete control)
[4] = 250 g ai/ha, scale 0 to 100 (0 no effect, 100 complete control)
[5] = 500 g ai/ha, 0 to 100 scale, 0 no effect, 100 complete control
[6] = 2000 g ai/ha, 0 to 100 scale, 0 no effect, 100 complete control
[7] = 500 g ai/ha, visual rating, 0 to 100 scale (0 no effect, 100 complete control)

SMILES	Plant response rating, Velvetleaf (velvetleaf)	Velvetleaf plant response rating (velvetleaf)	Plant response rating (0 = no effect, 100 = complete control), Cocklebur (cocklebur)	Plant response rating, Cocklebur (cocklebur; [3])	Plant response rating, Cocklebur (cocklebur; [4])	Cocklebur plant response rating (cocklebur)	Plant response rating (0 = no effect, 100 = complete control), Corn (corn)	Plant response rating, Corn (corn; [3])	Plant response rating, Corn (corn; [4])	Corn plant response rating (corn)	Plant response rating, Pigweed (redroot pigweed; [5])	Plant response rating, Pigweed (redroot pigweed; [6])	Pigweed plant response rating (redroot pigweed; [7])	Pigweed plant response rating (redroot pigweed; [6])	Plant response rating (0 = no effect, 100 = complete control), Pigweed (pigweed)	Plant response rating, Pigweed (pigweed)	Pigweed plant response rating (pigweed)	Plant response rating (0 = no effect, 100 = complete control), Morningglory (morningglory [1])	Plant response rating, Morningglory (morningglory [1])	Morningglory plant response rating (morningglory [1])	further results
CCn1nc(C(C)(C)C)cc1C(=O)Nc1cccc2c1CCN(C1CC1)C2=O [Compound 64]	30	60	0	0	0	0	0	0	0	30	65	95	100	100	30	70	100	0	0	0	Plant response rating (0 = no effect, 100 = complete control), Nightshade (eastern black nightshade): 0; Plant response rating, Nightshade (eastern black nightshade): 50; Nightshade plant response rating (eastern black nightshade): 95; Plant response rating (0 = no effect, 100 = complete control), Johnsongrass (johnsongrass): 0; Plant response rating, Johnsongrass (johnsongrass): 20; Johnsongrass plant response rating (johnsongrass): 60; Plant response rating, Morningglory (morningglory [2]; [5]): 10; Plant response rating, Morningglory (morningglory [2]; [6]): 10; Morningglory plant response rating (morningglory [2]; [7]): 0; Morningglory plant response rating (morningglory [2]; [6]): 5; Plant response rating (0 = no effect, 100 = complete control), Surinam Grass (Surinam grass): 0; Plant response rating, Surinam Grass (Surinam grass): 5; Surinam Grass plant response rating (Surinam grass): 50
CCCN1CCc2c(NC(=O)c3cc(C(C)(C)C)nn3CC)cccc2C1=O [Compound 65]	0	60	0	0	0	0	0	0	10	20	70	70	100	100	70	100	100	0	0	10	Plant response rating (0 = no effect, 100 = complete control), Nightshade (eastern black nightshade): 50; Plant response rating, Nightshade (eastern black nightshade): 90; Nightshade plant response rating (eastern black nightshade): 100; Plant response rating (0 = no effect, 100 = complete control), Johnsongrass (johnsongrass): 10; Plant response rating, Johnsongrass (johnsongrass): 40; Johnsongrass plant response rating (johnsongrass): 100; Plant response rating, Morningglory (morningglory [2]; [5]): 10; Plant response rating, Morningglory (morningglory [2]; [6]): 10; Morningglory plant response rating (morningglory [2]; [7]): 5; Morningglory plant response rating (morningglory [2]; [6]): 5; Plant response rating (0 = no effect, 100 = complete control), Surinam Grass (Surinam grass): 0; Plant response rating, Surinam Grass (Surinam grass): 0; Surinam Grass plant response rating (Surinam grass): 50
